Test results from ChEMBL document CHEMBL3885881, “DrugMatrix”.

Organism: Rattus norvegicus
Assay: DrugMatrix - Regimen: Daily Repeat
Type: toxicity, organism-based, Sprague-Dawley
Set-up: regimen Daily Repeat, gender Male, age 6-8 weeks
Conditions: in vivo, po, route oral GAVAGE, […]; for ABSOLUTE BASOPHIL / ABSOLUTE EOSINOPHIL / ABSOLUTE LYMPHOCYTE / ABSOLUTE MONOCYTE / ABSOLUTE SEGMENTED NEUTROPHIL / BASOPHIL / EOSINOPHIL / ERYTHROCYTE COUNT / HEMATOCRIT / HEMOGLOBIN / LEUKOCYTE COUNT / LYMPHOCYTE / MEAN CORPUSCULAR HEMOGLOBIN / MEAN CORPUSCULAR HEMOGLOBIN CONCENTRATION / MEAN CORPUSCULAR VOLUME / MONOCYTE / NEUTROPHIL / NUCLEATED RED BLOOD CELLS / PLATELET COUNT: tissue Blood; for ALANINE AMINOTRANSFERASE / ALBUMIN / ALKALINE PHOSPHATASE / ASPARTATE AMINOTRANSFERASE / BLOOD UREA NITROGEN / CARBON DIOXIDE / CHLORIDE / CHOLESTEROL / CREATINE PHOSPHOKINASE / CREATININE / GLUCOSE / LACTATE DEHYDROGENASE / LIPASE / PHOSPHORUS / POTASSIUM / SODIUM / TOTAL BILIRUBIN / TOTAL PROTEIN / URIC ACID: tissue Plasma
[1] = 12 mg/kg, 120 h, dose level Low, time 5 day
[2] = 380 mg/kg, 72 h, dose level High, time 3 day
[3] = 380 mg/kg, 120 h, dose level High, time 5 day

COc1ncnc(NS(=O)(=O)c2ccc(N)cc2)c1OC [SULFADOXINE]
ABSOLUTE BASOPHIL [1]: 0 CELLS/uL | ABSOLUTE EOSINOPHIL [1]: 0 CELLS/uL | ABSOLUTE LYMPHOCYTE [1]: 10205.33 CELLS/uL | ABSOLUTE MONOCYTE [1]: 178 CELLS/uL | ABSOLUTE SEGMENTED NEUTROPHIL [1]: 483.33 CELLS/uL | BASOPHIL [1]: 0% | EOSINOPHIL [1]: 0% | ERYTHROCYTE COUNT [1]: 5.46 x10E6/uL | HEMATOCRIT [1]: 34.5% | HEMOGLOBIN [1]: 13.53 G/DL | LEUKOCYTE COUNT [1]: 10.87 x10E3/uL | LYMPHOCYTE [1]: 94% | MEAN CORPUSCULAR HEMOGLOBIN [1]: 24.8 pg | MEAN CORPUSCULAR HEMOGLOBIN CONCENTRATION [1]: 39.27 G/DL | MEAN CORPUSCULAR VOLUME [1]: 63.17 fL | MONOCYTE [1]: 1.67% | NEUTROPHIL [1]: 4.33% | NUCLEATED RED BLOOD CELLS [1]: 0 /100WBC | PLATELET COUNT [1]: 1312.33 x10E3/uL | ALANINE AMINOTRANSFERASE [1]: 52 u/L | ALBUMIN [1]: 4.1 G/DL | ALKALINE PHOSPHATASE [1]: 476 u/L | ASPARTATE AMINOTRANSFERASE [1]: 74.33 u/L | BLOOD UREA NITROGEN [1]: 11.67 mg/dL | CARBON DIOXIDE [1]: 31.67 mmol/L | CHLORIDE [1]: 101.67 MEQ/L | CHOLESTEROL [1]: 65.33 mg/dL | CREATINE PHOSPHOKINASE [1]: 233 u/L | CREATININE [1]: 0.14 mg/dL | GLUCOSE [1]: 140.33 mg/dL | LACTATE DEHYDROGENASE [1]: 125.67 u/L | LIPASE [1]: 11.33 u/L | PHOSPHORUS [1]: 10.5 mg/dL | POTASSIUM [1]: 5.98 MEQ/L | SODIUM [1]: 148.87 MEQ/L | TOTAL BILIRUBIN [1]: 0.27 mg/dL | TOTAL PROTEIN [1]: 5.87 G/DL | URIC ACID [1]: 0.53 mg/dL | ABSOLUTE BASOPHIL [2]: 0 CELLS/uL | ABSOLUTE EOSINOPHIL [2]: 29.33 CELLS/uL | ABSOLUTE LYMPHOCYTE [2]: 8090 CELLS/uL | ABSOLUTE MONOCYTE [2]: 197 CELLS/uL | ABSOLUTE SEGMENTED NEUTROPHIL [2]: 650.33 CELLS/uL | BASOPHIL [2]: 0% | EOSINOPHIL [2]: 0.33% | ERYTHROCYTE COUNT [2]: 5.01 x10E6/uL | HEMATOCRIT [2]: 31.2% | HEMOGLOBIN [2]: 12.27 G/DL | LEUKOCYTE COUNT [2]: 8.97 x10E3/uL | LYMPHOCYTE [2]: 90% | MEAN CORPUSCULAR HEMOGLOBIN [2]: 24.6 pg | MEAN CORPUSCULAR HEMOGLOBIN CONCENTRATION [2]: 39.4 G/DL | MEAN CORPUSCULAR VOLUME [2]: 62.43 fL | MONOCYTE [2]: 2.33% | NEUTROPHIL [2]: 7.33% | NUCLEATED RED BLOOD CELLS [2]: 0 /100WBC | PLATELET COUNT [2]: 1128.67 x10E3/uL | ALANINE AMINOTRANSFERASE [2]: 92.33 u/L | ALBUMIN [2]: 3.93 G/DL | ALKALINE PHOSPHATASE [2]: 373.33 u/L | ASPARTATE AMINOTRANSFERASE [2]: 93.67 u/L | BLOOD UREA NITROGEN [2]: 13 mg/dL | CARBON DIOXIDE [2]: 32.33 mmol/L | CHLORIDE [2]: 99.67 MEQ/L | CHOLESTEROL [2]: 78 mg/dL | CREATINE PHOSPHOKINASE [2]: 280 u/L | CREATININE [2]: 0.14 mg/dL | GLUCOSE [2]: 143 mg/dL | LACTATE DEHYDROGENASE [2]: 116.67 u/L | LIPASE [2]: 11.67 u/L | PHOSPHORUS [2]: 9.13 mg/dL | POTASSIUM [2]: 5.99 MEQ/L | SODIUM [2]: 144.13 MEQ/L | TOTAL BILIRUBIN [2]: 0.2 mg/dL | TOTAL PROTEIN [2]: 5.5 G/DL | URIC ACID [2]: 0.37 mg/dL | ABSOLUTE BASOPHIL [3]: 0 CELLS/uL | ABSOLUTE EOSINOPHIL [3]: 0 CELLS/uL | ABSOLUTE LYMPHOCYTE [3]: 5345.67 CELLS/uL | ABSOLUTE MONOCYTE [3]: 97.67 CELLS/uL | ABSOLUTE SEGMENTED NEUTROPHIL [3]: 423.33 CELLS/uL | BASOPHIL [3]: 0% | EOSINOPHIL [3]: 0% | ERYTHROCYTE COUNT [3]: 5.09 x10E6/uL | HEMATOCRIT [3]: 32.47% | HEMOGLOBIN [3]: 12.83 G/DL | LEUKOCYTE COUNT [3]: 5.87 x10E3/uL | LYMPHOCYTE [3]: 91.33% | MEAN CORPUSCULAR HEMOGLOBIN [3]: 25.23 pg | MEAN CORPUSCULAR HEMOGLOBIN CONCENTRATION [3]: 39.53 G/DL | MEAN CORPUSCULAR VOLUME [3]: 63.77 fL | MONOCYTE [3]: 1.67% | NEUTROPHIL [3]: 7% | NUCLEATED RED BLOOD CELLS [3]: 0 /100WBC | PLATELET COUNT [3]: 1282.67 x10E3/uL | ALANINE AMINOTRANSFERASE [3]: 65.67 u/L | ALBUMIN [3]: 3.97 G/DL | ALKALINE PHOSPHATASE [3]: 341.33 u/L | ASPARTATE AMINOTRANSFERASE [3]: 76 u/L | BLOOD UREA NITROGEN [3]: 15 mg/dL | CARBON DIOXIDE [3]: 31.33 mmol/L | CHLORIDE [3]: 99.33 MEQ/L | CHOLESTEROL [3]: 75 mg/dL | CREATINE PHOSPHOKINASE [3]: 205.67 u/L | CREATININE [3]: 0.2 mg/dL | GLUCOSE [3]: 145 mg/dL | LACTATE DEHYDROGENASE [3]: 115.67 u/L | LIPASE [3]: 10.33 u/L | PHOSPHORUS [3]: 10.13 mg/dL | POTASSIUM [3]: 5.99 MEQ/L | SODIUM [3]: 144.77 MEQ/L | TOTAL BILIRUBIN [3]: 0.17 mg/dL | TOTAL PROTEIN [3]: 5.97 G/DL | URIC ACID [3]: 0.6 mg/dL
